Experiments:
PrPres = PrPres (Mesocricetus auratus, UniProt P04273); conditions: for PrPres bound to resin in five 10 ml columns in series / removal of PrPres: 300 ml RBCC spiked with 0.1% scrapie hamster brain homogenate, Western blot of bead eluates; for Resin needed to remove all PrPres to the limit of detection of the Western blot: 300 ml spiked RBCC, 3 columns of 10 ml
haPrPc and haPrPsc = haPrPc and haPrPsc (Mesocricetus auratus, UniProt P04273); conditions: 3-mer library, hamster brain homogenates
haPrPc and haPrPsc, sequence (P04273 23-231 limits assumed): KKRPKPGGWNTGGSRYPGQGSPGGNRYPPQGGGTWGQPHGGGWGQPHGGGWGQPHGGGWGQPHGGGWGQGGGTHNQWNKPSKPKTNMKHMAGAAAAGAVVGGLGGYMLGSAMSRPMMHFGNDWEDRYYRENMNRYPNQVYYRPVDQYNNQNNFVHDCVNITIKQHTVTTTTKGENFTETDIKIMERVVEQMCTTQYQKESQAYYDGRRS

PrPc = PrPc (Mesocricetus auratus, UniProt P04273); conditions: 1% normal hamster brain homogenate, 0.5 ml column
PrPc, sequence (P04273 23-231 limits assumed): as above

PrPres, sequence (P04273 23-231 limits assumed): as above

Substance	PrPres bound to resin in five 10 ml columns in series / removal of PrPres (PrPres)	Resin needed to remove all PrPres to the limit of detection of the Western blot (PrPres)	Preferential binding of PrPsc over PrPc (haPrPc and haPrPsc)	Location of bound PrPc on chopped resin beads (PrPc)
(D)ES(na)PRQ-EACA [SEQ ID NO:226]	decreasing amounts of PrPres on columns 1 through 3	–	–	–
DVR [SEQ ID NO:114]	remove all of the PrPres to the limit of detection of the Western blot in 3 columns	30 mL	bind preferentially PrPsc over PrPc	protein bound to the exterior of the beads
SYA [SEQ ID NO:108]	remove all of the PrPres to the limit of detection of the Western blot in 3 columns	30 mL	–	–
VQR [SEQ ID NO:111]	–	–	bind preferentially PrPsc over PrPc	–
WFVEA [SEQ ID NO:225]	does not bind and remove all of the prion protein to the limit of detection	–	–	–
YVHEA [SEQ ID NO:63]	decreasing amounts of PrPres on columns 1 through 3	–	–	–

— US8604161B2 (priority 2002, dated 2013)
